This passage reports inhibition and Ki results from US20120101110A1, “Diaza-spiro[5.5]undecanes” (priority 2010, published 2012).

Experiment [1] deals with T1, human orexin 1 receptors (Homo sapiens, UniProt O43613).
T1 sequence (O43613 1-425): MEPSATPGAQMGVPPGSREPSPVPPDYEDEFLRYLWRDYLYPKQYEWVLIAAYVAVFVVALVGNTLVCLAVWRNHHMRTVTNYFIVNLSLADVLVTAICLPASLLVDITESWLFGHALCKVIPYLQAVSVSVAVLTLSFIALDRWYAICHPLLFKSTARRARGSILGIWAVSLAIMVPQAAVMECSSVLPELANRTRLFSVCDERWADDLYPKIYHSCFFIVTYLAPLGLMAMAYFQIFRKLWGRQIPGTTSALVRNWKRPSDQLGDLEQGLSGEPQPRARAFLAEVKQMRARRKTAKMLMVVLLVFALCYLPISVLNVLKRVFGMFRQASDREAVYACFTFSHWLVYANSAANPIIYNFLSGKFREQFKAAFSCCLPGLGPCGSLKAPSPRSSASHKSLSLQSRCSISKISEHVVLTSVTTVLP
Put plainly: Calcium accumulation in cells (FLIPR), hOx1R. As to conditions: for inhibition at 10 µM: read-out: FLIPR hOx1R % inhibition value.
Procedure: Cells expressing human orexin 1 or human orexin 2 receptors, were seeded at 8,000 cells/well in 384 well black-walled clear bottom, poly-D-lysine coated plates. After 24 h, the medium was removed and cells were washed once with phosphate buffered saline and serum-deprived overnight in assay buffer (130 mM NaCl, 5.4 mM KCl, 1.8 mM CaCl2, 0.8 mM MgSO4, 0.9 mM NaH2PO4, 25 mM glucose, 20 mM HEPES, pH 7.4) containing bovine serum albumin (1% w/v).
On the day of the experiment, the cells seeded in black plates were treated with assay buffer containing the Ca^2+sensitive fluorescent dye Fluo-4-AM (2 μM), and probenecid (0.1 mM). After 1 h plates were washed twice with, and resuspended in, assay buffer containing probenecid (0.1 mM) using a multi plate washer. The plates were placed into a FLIPR II (Fluorometric Imaging Plate Reader, Molecular Devices, Sunnyvale, Calif., USA) and baseline fluorescence (fluorescence light units, FLU) was measured (5 measurements, 2 S each; laser excitation 488 nm at 0.6-1 W, CCD camera exposure 0.4 s) before addition of buffer alone (basal) or containing test compounds (either compound of formula I alone, agonist alone or agonist in the presence of various concentrations of compounds of formula I). Fluorescence measurements were then continued every 1 S for 120 S followed by every 4 S for 240 S.
Compounds of formula I were tested usually in a concentration range from 10^−9 M to 10^−5 M. In the second round, performed one hour later (to allow for equilibration), Orexin A was tested either in the absence (calibration curves, Orexin A agonist controls) or in the presence of compounds of formula I to determine antagonism.
Inhibition data is expressed in Table 2 as Ki [μM], converted by the Cheng and Prusoff correction (Ki=IC50/1+(L/EC50)), where IC50 is the 50% inhibition value determined in concentration response inhibition curves, EC50 is the half maximal activation concentration determined for orexin A in concentration response curves and L is the concentration of orexin A used in inhibition experiments performed in with a submaximal concentration of orexin A in the presence of up to 8 increasing concentrations of compound of formula I. Inhibition data is also expressed in Table 2 as % inhibition value measured at a concentration of 10 μM of selected compounds of formula I.

Experiment [2] concerns the target T2, human orexin 2 receptors (Homo sapiens, UniProt O43614).
T2 sequence (O43614 1-444): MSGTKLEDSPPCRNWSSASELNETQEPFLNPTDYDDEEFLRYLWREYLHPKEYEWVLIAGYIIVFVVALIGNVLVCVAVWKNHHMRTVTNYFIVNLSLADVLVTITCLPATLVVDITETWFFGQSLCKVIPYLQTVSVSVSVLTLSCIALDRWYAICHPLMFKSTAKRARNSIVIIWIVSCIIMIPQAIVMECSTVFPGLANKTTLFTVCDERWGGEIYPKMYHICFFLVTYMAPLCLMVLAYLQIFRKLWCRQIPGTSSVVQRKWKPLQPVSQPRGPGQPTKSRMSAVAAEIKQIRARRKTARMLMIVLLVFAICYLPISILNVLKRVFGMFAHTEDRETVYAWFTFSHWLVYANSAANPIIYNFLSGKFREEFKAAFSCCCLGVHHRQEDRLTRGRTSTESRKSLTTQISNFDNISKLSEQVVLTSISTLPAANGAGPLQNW
Nature of the experiment: Calcium accumulation in cells (FLIPR), hOx2R. Type of experiment: cell-based. Particulars: cells expressing human orexin 2 receptor; inhibition of orexin A-induced calcium accumulation; Cheng and Prusoff correction.

Each structure is given as a SMILES string.

Turning to `COc1cncc(N2CCC3(CCCN(Cc4c[nH]c5ncccc45)C3=O)CC2)n1` [Example 8, 2-((1H-pyrrolo[2,3-b]pyridin-3-yl)methyl)-9-(6-methoxypyrazin-2-yl)-2,9-diazaspiro[5.5]undecan-1-one], the inhibition at 10 µM in experiment [1] was found to be 31%. In addition, the Ki in experiment [2] is 276 nM.

On to `N#Cc1ccc(N2CCC3(CCCC(=O)N3Cc3cccc4[nH]ccc34)CC2)nc1` [Example 14, 6-(1-((1H-indol-4-yl)methyl)-2-oxo-1,9-diazaspiro[5.5]undecan-9-yl)nicotinonitrile], for which the inhibition at 10 µM in experiment [1] stood at 13%. Besides, the Ki in experiment [2] stood at 200 nM.

Consider `Cc1ccnc(N2CCC3(CCCC(=O)N3Cc3ccccc3-n3nccn3)CC2)n1` [Example 16, 1-(2-(2H-1,2,3-triazol-2-yl)benzyl)-9-(4-methylpyrimidin-2-yl)-1,9-diazaspiro[5.5]undecan-2-one], for which the inhibition at 10 µM in experiment [1] worked out at 31%. For the same compound, the inhibitory constant (Ki) in experiment [2] was determined as 270 nM.

For `Cc1nnc(N2CCC3(CCCN(Cc4c[nH]c5ccccc45)C3=O)CC2)o1` [Example 17, 2-((1H-indol-3-yl)methyl)-9-(5-methyl-1,3,4-oxadiazol-2-yl)-2,9-diazaspiro[5.5]undecan-1-one], the inhibition at 10 µM in experiment [1] was 12%.

`O=C1N(Cc2c[nH]c3ncccc23)CCCC12CCN(c1cncc(Cl)n1)CC2` [Example 18, 2-((1H-pyrrolo[2,3-b]pyridin-3-yl)methyl)-9-(6-chloropyrazin-2-yl)-2,9-diazaspiro[5.5]undecan-1-one]: the inhibition constant (Ki) is 3200 nM in experiment [1] and 123 nM in experiment [2].

With `Cc1cncc(N2CCC3(CCCN(Cc4c[nH]c5ncccc45)C3=O)CC2)n1` [Example 19, 2-((1H-pyrrolo[2,3-b]pyridin-3-yl)methyl)-9-(6-methylpyrazin-2-yl)-2,9-diazaspiro[5.5]undecan-1-one], the inhibition at 10 µM in experiment [1] was determined as 31%. Besides, the Ki in experiment [2] was found to be 147 nM.

Consider `Cc1cc(C)nc(N2CCC3(CCCN(Cc4c(-c5ccccc5)noc4C)C3=O)CC2)n1` [Example 23, 9-(4,6-dimethylpyrimidin-2-yl)-2-((5-methyl-3-phenylisoxazol-4-yl)methyl)-2,9-diazaspiro[5.5]undecan-1-one], for which the Ki in experiment [1] was 2880 nM; in experiment [2] it was 115 nM.

`Cc1ccnc(N2CCC3(CCCN(Cc4ccccc4-n4nccn4)C3=O)CC2)n1` [Example 24, 2-(2-(2H-1,2,3-triazol-2-yl)benzyl)-9-(4-methylpyrimidin-2-yl)-2,9-diazaspiro[5.5]undecan-1-one]: in experiment [1], the inhibition at 10 µM is below 10%. The Ki in experiment [2] was 509 nM.

As to `N#Cc1cccc(N2CCC3(CCCN(Cc4ccccc4-n4nccn4)C3=O)CC2)n1` [Example 26, 6-(2-(2-(2H-1,2,3-triazol-2-yl)benzyl)-1-oxo-2,9-diazaspiro[5.5]undecan-9-yl)picolinonitrile], the inhibition at 10 µM in experiment [1] was below 10%.

In the case of `N#Cc1ccnc(N2CCC3(CCCN(Cc4ccccc4-n4nccn4)C3=O)CC2)c1` [Example 27, 2-(2-(2-(2H-1,2,3-triazol-2-yl)benzyl)-1-oxo-2,9-diazaspiro[5.5]undecan-9-yl)isonicotinonitrile], the inhibition at 10 µM in experiment [1] was below 10%. In addition, the Ki in experiment [2] stood at 645 nM.

With `Cc1ccnc(N2CCC3(CCCN(Cc4cccc(-c5ncccn5)c4)C3=O)CC2)n1` [Example 30, 9-(4-methylpyrimidin-2-yl)-2-(3-(pyrmidin-2-yl)benzyl)-2,9-diazaspiro[5.5]undecan-1-one], in experiment [1], the inhibition at 10 µM is 48%. The Ki in experiment [2] was determined as 686 nM.

On to `CN(C)c1ccnc(N2CCC3(CCCN(Cc4c[nH]c5ccccc45)C3=O)CC2)n1` [Example 46, 2-((1H-indol-3-yl)methyl)-9-(4-(dimethylamino)pyrimidin-2-yl)-2,9-diazaspiro[5.5]undecan-1-one], for which, in experiment [1], the inhibition at 10 µM was found to be 25%. The Ki in experiment [2] is 143 nM.

Take `COc1nccc(N2CCC3(CCCN(Cc4c[nH]c5ccccc45)C3=O)CC2)n1` [Example 47, 2-((1H-indol-3-yl)methyl)-9-(2-methoxypyrimidin-4-yl)-2,9-diazaspiro[5.5]undecan-1-one]: in experiment [1], the inhibition at 10 µM stood at 25%. Besides, the Ki in experiment [2] is 630 nM.

In the case of `O=C1N(Cc2c[nH]c3ccccc23)CCCC12CCN(c1ccnc(Cl)n1)CC2` [Example 48, 2-((1H-indol-3-yl)methyl)-9-(2-chloropyrimidin-4-yl)-2,9-diazaspiro[5.5]undecan-1-one], the Ki in experiment [1] came to 3150 nM; in experiment [2], 152 nM.

Turning to `O=C1N(Cc2c[nH]c3ccccc23)CCCC12CCN(c1nccc(C(F)(F)F)n1)CC2` [Example 49, 2-((1H-indol-3-yl)methyl)-9-(4-(trifluoromethyl)pyrimidin-2-yl)-2,9-diazaspiro[5.5]undecan-1-one], the Ki in experiment [1] turned out to be 2180 nM; in experiment [2] it was 190 nM.

Regarding `COc1cc(N2CCC3(CCCN(Cc4c[nH]c5ccccc45)C3=O)CC2)ccn1` [Example 61, 2-((1H-indol-3-yl)methyl)-9-(2-methoxypyridin-4-yl)-2,9-diazaspiro[5.5]undecan-1-one], the Ki in experiment [1] was 3840 nM.

In the case of `O=C1N(Cc2c[nH]c3ccccc23)CCCC12CCN(c1cccc(O)n1)CC2` [Example 84, 2-((1H-indol-3-yl)methyl)-9-(6-hydroxypyridin-2-yl)-2,9-diazaspiro[5.5]undecan-1-one], in experiment [1], the inhibition at 10 µM was determined as 24%.

For `Cc1ccnc(N2CCC3(CCCC(=O)N3Cc3ccc(-c4ncccn4)cc3)CC2)n1` [Example 90, 9-(4-methylpyrimidin-2-yl)-1-(4-(pyrimidin-2-yl)benzyl)-1,9-diazaspiro[5.5]undecan-2-one], the inhibition at 10 µM in experiment [1] was below 10%.

Consider `Cc1ccnc(N2CCC3(CCCC(=O)N3Cc3cccc(-n4nccn4)c3)CC2)n1` [Example 94, 1-(3-(2H-1,2,3-triazol-2-yl)benzyl)-9-(4-methylpyrimidin-2-yl)-1,9-diazaspiro[5.5]undecan-2-one], for which the inhibition at 10 µM in experiment [1] stood at 36%.

Consider `Cc1ccnc(N2CCC3(CCCC(=O)N3Cc3nnc(-c4ccccc4)o3)CC2)n1` [Example 95, 9-(4-methylpyrimidin-2-yl)-1-((5-phenyl-1,3,4-oxadiazol-2-yl)methyl)-1,9-diazaspiro[5.5]undecan-2-one], for which, in experiment [1], the inhibition at 10 µM was 10%.

With `Cc1ccnc(N2CCC3(CCCC(=O)N3Cc3cccc(-c4nc(C)no4)c3)CC2)n1` [Example 97, 1-(3-(3-methyl-1,2,4-oxadiazol-5-yl)benzyl)-9-(4-methylpyrimidin-2-yl)-1,9-diazaspiro[5.5]undecan-2-one], in experiment [1], the inhibition at 10 µM was 15%.

With `Cc1ccnc(N2CCC3(CCCC(=O)N3Cc3cccc(N4CCCC4)n3)CC2)n1` [Example 98, 9-(4-methylpyrimidin-2-yl)-1-((6-(pyrrolidin-1-yl)pyridin-2-yl)methyl)-1,9-diazaspiro[5.5]undecan-2-one], the inhibition at 10 µM in experiment [1] is below 10%.

For `Cc1cc(N2CCC3(CCCN(Cc4c[nH]c5ccccc45)C3=O)CC2)ccn1` [Example 100, 2-((1H-indol-3-yl)methyl)-9-(2-methylpyridin-4-yl)-2,9-diazaspiro[5.5]undecan-1-one], the inhibition at 10 µM in experiment [1] is below 10%.

Regarding `Cc1ccnc(N2CCC3(CCCC(=O)N3Cc3cc(C#N)ccc3F)CC2)n1` [Example 101, 4-fluoro-3-((9-(4-methylpyrimidin-2-yl)-2-oxo-1,9-diazaspiro[5.5]undecan-1-yl)methyl)benzonitrile], in experiment [1], the inhibition at 10 µM was below 10%.

One may read the inhibition as the change of the read-out against control, counted positive when it falls. As usually defined, the Ki is the equilibrium dissociation constant of an inhibitor or competing ligand from its target.
